In PMC8523698, “Preclinical characterization of an intravenous coronavirus 3CL protease inhibitor for the potential treatment of COVID19” (Nature Communications, 2021):
pEC50, pIC50: −log10 of the molar value. Values joined by “and” are separate entries in the source; they are usually repeats but may differ in a detail not shown here. Equal entries are not always repeated. Where two headings read alike, the source gives them in different places.

What was measured:
[1] = system: SARS-CoV-2 Washington strain 1 (USA_WA1/2020); format: cell-based
[2] = system: HCoV-229E; assay: Viral CPE assay in MRC-5 cells (CellTiter Glo); format: cell-based
[3] = target: T1, MATE2K (Homo sapiens, UniProt Q86VL8); assay: Transporter inhibition using transfected HEK293 cells; format: in vitro ADME; details: IC50, [14C]Metformin (20 µM)
T1 construct: expressed in transfected cells; host or cells: HEK293
T1 sequence (Q86VL8 1-566 isoform Q86VL8-3): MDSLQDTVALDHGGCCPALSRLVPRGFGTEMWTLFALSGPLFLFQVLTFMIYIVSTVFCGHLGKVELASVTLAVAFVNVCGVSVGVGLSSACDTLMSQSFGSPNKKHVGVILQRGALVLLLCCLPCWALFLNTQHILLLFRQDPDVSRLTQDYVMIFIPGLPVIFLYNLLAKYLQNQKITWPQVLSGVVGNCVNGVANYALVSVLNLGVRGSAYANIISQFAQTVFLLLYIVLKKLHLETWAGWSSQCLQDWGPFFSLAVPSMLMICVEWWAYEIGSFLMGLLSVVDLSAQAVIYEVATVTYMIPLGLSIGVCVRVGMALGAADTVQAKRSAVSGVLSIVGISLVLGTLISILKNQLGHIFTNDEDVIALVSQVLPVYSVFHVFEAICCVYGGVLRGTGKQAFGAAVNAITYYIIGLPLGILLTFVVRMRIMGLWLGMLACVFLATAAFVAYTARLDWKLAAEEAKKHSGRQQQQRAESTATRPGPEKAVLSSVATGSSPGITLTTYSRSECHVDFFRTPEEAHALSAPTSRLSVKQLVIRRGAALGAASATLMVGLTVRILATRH
Procedure: For the inhibition studies, HEK293 cells were washed three times with warm transport buffer (Hanks’ balanced salt solution with 20 mM 4-(2-Hydroxyethyl) piperazine-1-ethanesulfonic acid, pH 7.4) followed by incubation with test compounds containing probe substrates: 10 or 20 µM [^14C]-metformin (OCT1, OCT2, MATE1, MATE2K), 0.5 µM [^3H] para-aminohippuric acid (OAT1), 0.1 µM [^3H] estrone-3-sulfate (OAT3) or 0.5 µM rosuvastatin (OATP1B1/1B3). Uptake was terminated by washing cells at least three times with ice-cold transport buffer and then lysing with 0.2 mL of scintillation fluid or 0.225 mL of methanol containing internal standard. For radiolabeled compounds, radioactivity in each sample was quantified by measurement on MicroBeta (Perkin Elmer). For rosuvastatin, cell extracts were dried down under nitrogen and reconstituted in 50:50 (v:v) methanol:water prior to injection onto a LC-MS/MS system. The total cellular protein content was determined by using a BCA Protein Assay Kit (Pierce Biotechnology) following the manufacturer’s protocol. Uptake ratio was then derived as a ratio of accumulation in transfected cells to accumulation in wild-type cells. The half-maximal inhibitory concentration (IC50) for each transporter was calculated in GraphPad Prism.

[4] = Monkey pharmacokinetic study; details: for Vd: Vdss
[5] = system: Salmonella typhimurium strains and E. coli strain WP2 uvrA; assay: Bacterial reverse mutation assay; details: with and without metabolic activation
[6] = target: MDR1/P-gp (Homo sapiens, UniProt P08183); assay: Transporter inhibition using membrane vesicles; details: for % PGP Uptake Activity: uptake of N-methyl quinidine by MDR1, single replicates
MDR1/P-gp, sequence (P08183 whole entry): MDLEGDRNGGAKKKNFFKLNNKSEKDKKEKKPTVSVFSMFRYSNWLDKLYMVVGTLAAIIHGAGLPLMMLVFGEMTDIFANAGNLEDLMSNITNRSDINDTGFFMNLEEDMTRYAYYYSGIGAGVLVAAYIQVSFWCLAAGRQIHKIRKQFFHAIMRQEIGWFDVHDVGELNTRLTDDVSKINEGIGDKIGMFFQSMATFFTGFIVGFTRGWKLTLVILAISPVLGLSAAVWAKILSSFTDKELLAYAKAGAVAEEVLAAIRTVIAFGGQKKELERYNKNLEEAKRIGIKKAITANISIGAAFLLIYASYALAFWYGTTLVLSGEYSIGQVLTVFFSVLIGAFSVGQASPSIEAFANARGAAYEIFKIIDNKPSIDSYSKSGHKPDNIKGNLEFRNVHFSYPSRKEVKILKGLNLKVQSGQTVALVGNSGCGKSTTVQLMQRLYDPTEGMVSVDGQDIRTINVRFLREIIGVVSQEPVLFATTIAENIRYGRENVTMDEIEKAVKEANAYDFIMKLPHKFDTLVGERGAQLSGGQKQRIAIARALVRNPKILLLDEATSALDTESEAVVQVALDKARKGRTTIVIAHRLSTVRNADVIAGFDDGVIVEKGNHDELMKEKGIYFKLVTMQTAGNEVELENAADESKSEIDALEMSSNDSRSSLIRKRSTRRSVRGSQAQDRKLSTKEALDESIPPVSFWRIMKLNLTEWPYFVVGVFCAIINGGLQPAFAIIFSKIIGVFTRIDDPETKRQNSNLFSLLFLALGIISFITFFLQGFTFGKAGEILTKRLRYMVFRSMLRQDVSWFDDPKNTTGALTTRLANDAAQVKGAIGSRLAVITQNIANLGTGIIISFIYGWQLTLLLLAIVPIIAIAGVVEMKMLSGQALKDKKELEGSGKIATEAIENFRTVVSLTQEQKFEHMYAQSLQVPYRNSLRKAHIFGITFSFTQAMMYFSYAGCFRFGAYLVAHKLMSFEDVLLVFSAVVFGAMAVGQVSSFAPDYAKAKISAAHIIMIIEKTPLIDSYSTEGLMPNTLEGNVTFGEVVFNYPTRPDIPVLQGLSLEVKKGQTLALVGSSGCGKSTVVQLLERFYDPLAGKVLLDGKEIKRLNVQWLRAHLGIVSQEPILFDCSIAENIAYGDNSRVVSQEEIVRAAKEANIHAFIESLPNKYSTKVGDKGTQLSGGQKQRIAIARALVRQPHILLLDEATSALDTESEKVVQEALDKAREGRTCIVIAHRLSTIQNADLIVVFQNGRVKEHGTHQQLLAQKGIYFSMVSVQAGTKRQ

[7] = target: BCRP (Homo sapiens, UniProt Q9UNQ0); assay: Transporter inhibition using membrane vesicles; details: IC50, Rosuvastatin (0.2 µM)
BCRP, sequence (Q9UNQ0 whole entry): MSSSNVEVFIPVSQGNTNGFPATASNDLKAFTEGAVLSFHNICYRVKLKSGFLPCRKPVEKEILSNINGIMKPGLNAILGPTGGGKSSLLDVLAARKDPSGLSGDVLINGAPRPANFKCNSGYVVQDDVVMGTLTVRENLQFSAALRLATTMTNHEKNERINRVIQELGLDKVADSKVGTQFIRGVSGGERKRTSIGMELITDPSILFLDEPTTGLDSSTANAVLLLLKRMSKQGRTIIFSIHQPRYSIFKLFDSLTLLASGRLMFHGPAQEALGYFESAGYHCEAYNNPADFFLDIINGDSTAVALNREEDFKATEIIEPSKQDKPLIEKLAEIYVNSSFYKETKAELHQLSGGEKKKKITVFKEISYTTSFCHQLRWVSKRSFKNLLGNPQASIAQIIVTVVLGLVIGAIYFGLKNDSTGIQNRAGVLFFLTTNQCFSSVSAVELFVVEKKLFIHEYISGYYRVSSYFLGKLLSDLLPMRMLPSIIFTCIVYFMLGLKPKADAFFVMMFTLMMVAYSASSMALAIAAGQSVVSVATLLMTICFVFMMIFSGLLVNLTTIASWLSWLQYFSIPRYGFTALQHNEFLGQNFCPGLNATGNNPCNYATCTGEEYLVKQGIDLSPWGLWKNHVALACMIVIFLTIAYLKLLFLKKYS

[8] = target: T2, OATP1B1 (Homo sapiens, UniProt Q9Y6L6); assay: Transporter inhibition using transfected HEK293 cells; details: IC50, Rosuvastatin (0.5 µM)
T2 sequence (Q9Y6L6 1-691): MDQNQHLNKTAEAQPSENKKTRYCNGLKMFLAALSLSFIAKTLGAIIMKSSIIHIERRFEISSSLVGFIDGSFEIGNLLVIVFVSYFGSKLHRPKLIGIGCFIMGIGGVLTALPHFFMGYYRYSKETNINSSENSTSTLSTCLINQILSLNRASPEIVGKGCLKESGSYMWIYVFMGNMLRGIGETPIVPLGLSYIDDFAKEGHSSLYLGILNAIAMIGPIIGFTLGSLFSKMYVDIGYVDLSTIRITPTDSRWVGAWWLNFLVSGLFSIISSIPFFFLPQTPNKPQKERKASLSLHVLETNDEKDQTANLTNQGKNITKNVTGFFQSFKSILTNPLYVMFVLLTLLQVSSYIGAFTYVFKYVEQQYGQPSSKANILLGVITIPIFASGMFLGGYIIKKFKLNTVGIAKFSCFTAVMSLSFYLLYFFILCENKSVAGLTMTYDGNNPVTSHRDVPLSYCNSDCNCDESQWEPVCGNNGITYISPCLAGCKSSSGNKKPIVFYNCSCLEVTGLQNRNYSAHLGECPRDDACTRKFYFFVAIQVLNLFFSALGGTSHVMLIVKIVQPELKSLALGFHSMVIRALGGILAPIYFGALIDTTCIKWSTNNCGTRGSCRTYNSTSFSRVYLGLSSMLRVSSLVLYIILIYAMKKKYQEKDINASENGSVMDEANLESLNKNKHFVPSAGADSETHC

[9] = monkey, PF-07304814 prodrug dosed […] intravenous, individual monkeys, […]

For `COc1cccc2[nH]c(C(=O)N[C@@H](CC(C)C)C(=O)N[C@@H](C[C@@H]3CCNC3=O)C(=O)CO)cc12` [PF-00835231-00], the “% Well Effect” value [1] was 0.795%, the “% Well Effect” value ([2]; 0.000938825 uM, minus efflux inhibitor, EC50 run 17-Apr-2020) was -3.33% and -1.20% and the “% Well Effect” value ([2]; 0.000938825 uM, minus efflux inhibitor, EC50 run 24-Apr-2020) was 15.19% and 11.15%. The “% Well Effect” value ([2]; 0.000949267 uM, minus efflux inhibitor, EC50 run 11-Apr-2020) was 5.04% and 4.22% and -1.30% and -1.77%, the “% Well Effect” value ([2]; 0.00297326 uM, minus efflux inhibitor, EC50 run 17-Apr-2020) was -5.19% and 4.25% and the “% Well Effect” value ([2]; 0.00297326 uM, minus efflux inhibitor, EC50 run 24-Apr-2020) was 5.52% and -0.60%. For the same compound, the “% Well Effect” value ([2]; 0.00300158 uM, minus efflux inhibitor, EC50 run 11-Apr-2020) was 4.34% and 3.84% and 1.15% and -4.56%, the “% Well Effect” value ([2]; 0.007813 uM, minus efflux inhibitor, EC50 run 30-Apr-2020) was 0.98% and 0.83% and the “% Well Effect” value ([2]; 0.00941631 uM, minus efflux inhibitor, EC50 run 17-Apr-2020) was 1.75% and 4.31%. The “% Well Effect” value ([2]; 0.0298215 uM, minus efflux inhibitor, EC50 run 17-Apr-2020) was 23.90% and 29.75%, the “% Well Effect” value ([2]; 0.0298215 uM, minus efflux inhibitor, EC50 run 24-Apr-2020) was -2.80% and 5.98% and the “% Well Effect” value ([2]; 0.0300105 uM, minus efflux inhibitor, EC50 run 11-Apr-2020) was 22.27% and 25.51% and 18.77% and 17.89%. For the same compound, the “% Well Effect” value ([2]; 0.03125 uM, minus efflux inhibitor, EC50 run 30-Apr-2020) was 10.60% and 5.67%, the “% Well Effect” value ([2]; 0.0625 uM, minus efflux inhibitor, EC50 run 30-Apr-2020) was 34.90% and 38.53% and the “% Well Effect” value ([2]; 0.0944446 uM, minus efflux inhibitor, EC50 run 17-Apr-2020) was 86.84% and 95.70%. The “% Well Effect” value ([2]; 0.0944446 uM, minus efflux inhibitor, EC50 run 24-Apr-2020) was 19.60% and 23.25%, the “% Well Effect” value ([2]; 0.0948933 uM, minus efflux inhibitor, EC50 run 11-Apr-2020) was 74.74% and 86.04% and 87.19% and 85.97% and the “% Well Effect” value ([2]; 0.09491 uM, minus efflux inhibitor, EC50 run 3-Apr-2020) was 60.58% and 66.48% and 51.57% and 67.27%. The “% Well Effect” value ([2]; 0.299106 uM, minus efflux inhibitor, EC50 run 17-Apr-2020) was 107.11% and 115.95%, the “% Well Effect” value ([2]; 0.299106 uM, minus efflux inhibitor, EC50 run 24-Apr-2020) was 59.17% and 71.11% and the “% Well Effect” value ([2]; 0.300053 uM, minus efflux inhibitor, EC50 run 11-Apr-2020) was 109.88% and 116.26% and 114.19% and 115.61%. For the same compound, the “% Well Effect” value ([2]; 0.300105 uM, minus efflux inhibitor, EC50 run 3-Apr-2020) was 99.66% and 103.56% and 105.08% and 101.55%, the “% Well Effect” value ([2]; 0.5 uM, minus efflux inhibitor, EC50 run 30-Apr-2020) was 102.45% and 101.06% and the “% Well Effect” value ([2]; 0.947269 uM, minus efflux inhibitor, EC50 run 17-Apr-2020) was 102.69% and 111.34%. For the same compound, the “% Well Effect” value ([2]; 0.947269 uM, minus efflux inhibitor, EC50 run 24-Apr-2020) was 73.36% and 89.87%, the “% Well Effect” value ([2]; 0.948767 uM, minus efflux inhibitor, EC50 run 11-Apr-2020) was 109.36% and 109.78% and 108.04% and 112.87% and the “% Well Effect” value ([2]; 0.948933 uM, minus efflux inhibitor, EC50 run 3-Apr-2020) was 100.40% and 104.08% and 100.39% and 101.88%. The “% Well Effect” value ([2]; 1 uM, minus efflux inhibitor, EC50 run 30-Apr-2020) was 105.73% and 102.25%, the “% Well Effect” value ([2]; 3 uM, minus efflux inhibitor, EC50 run 11-Apr-2020) was 107.90% and 109.07% and 108.64% and 109.54% and the “% Well Effect” value ([2]; 3 uM, minus efflux inhibitor, EC50 run 17-Apr-2020) was 101.53% and 109.98%. The “% Well Effect” value ([2]; 3 uM, minus efflux inhibitor, EC50 run 24-Apr-2020) was 75.89% and 83.80%, the “% Well Effect” value ([2]; 3 uM, plus 0.5 uM efflux inhibitor, EC50 run 22-may-2020) was 87.68% and the “% Well Effect” value ([2]; 3 uM, plus 0.5 uM efflux inhibitor, EC50 run 24-Apr-2020) was 59.97%. The “% Well Effect” value ([2]; 3.00053 uM, minus efflux inhibitor, EC50 run 3-Apr-2020) was 99.82% and 106.83% and 102.14% and 104.18%, the “% Well Effect” value ([2]; 9.48767 uM, minus efflux inhibitor, EC50 run 3-Apr-2020) was 101.96% and 104.70% and 102.25% and 105.36% and the “% Well Effect” value ([2]; 30 uM, minus efflux inhibitor, EC50 run 3-Apr-2020) was 102.99% and 107.66% and 105.96% and 105.84%.

For `COc1cccc2[nH]c(C(=O)N[C@@H](CC(C)C)C(=O)N[C@@H](C[C@@H]3CCNC3=O)C(=O)COP(=O)(O)O)cc12` [PF-07304814], the pEC50 ([2]; Human coronavirus 229E, MRC5, read-out: EC50 GeoMean (95% CI), efflux inhibitor CP-100356: 0) was 7.13, the pEC50 ([2]; Human coronavirus 229E, MRC5, read-out: EC50 GeoMean (95% CI), efflux inhibitor CP-100356: 0.5 μM) was 7.24 and the pEC50 ([2]; MRC-5, plus 0.5 uM efflux inhibitor, one value per run date (N=3), read-out: EC50) was 7.09. For the same compound, the pIC50 [3] was < 3.52, the clearance ([4]; male, cynomolgus monkey, plasma, iv, Cl, monkey IV (n=2, range), PF-07304814 […], PF-00835231 1.0mg/kg) was 191 mL/min/kg and the half-life ([4]; male, cynomolgus monkey, plasma, iv, Terminal T1/2, monkey IV (n=2, range), PF-07304814 […], PF-00835231 1.0mg/kg) was 2.6 h. For the same compound, the Vd ([4]; male, cynomolgus monkey, plasma, iv, monkey IV (n=2, range), PF-07304814 […], PF-00835231 1.0mg/kg) was 1.8 L/kg, the clearance ([4]; male, cynomolgus monkey, plasma, iv, […], Clearance, Mean Data, monkey, PF-07304814 prodrug dosed […] intravenous, mean) was 191 mL/min/kg and the clearance ([4]; male, cynomolgus monkey, plasma, iv, […], Clearance, monkey, PF-07304814 prodrug dosed […] intravenous, individual monkeys) was 252 mL/min/kg. The half-life ([4]; male, cynomolgus monkey, plasma, iv, […], Half life, Mean Data, monkey, PF-07304814 prodrug dosed […] intravenous, mean) was 2.6 h, the half-life ([4]; male, cynomolgus monkey, plasma, iv, […], Half life, monkey, PF-07304814 prodrug dosed […] intravenous, individual monkeys) was 2.2 h and the Vd ([4]; male, cynomolgus monkey, plasma, iv, […], Mean Data, monkey, PF-07304814 prodrug dosed […] intravenous, mean) was 1.78 L/kg. For the same compound, the “%unchanged in urine” value ([4]; monkey IV, PF-07304814 […], PF-00835231 1.0mg/kg) was < 0.1%, the “Total Concn, Mean Data” value ([4]; monkey plasma, PF-07304814 prodrug dosed […] intravenous, time 7 h, mean, BLQ=0.1ng/mL) was “BLQ” and the “Urine Concn” value ([4]; monkey urine 0-7h, PF-07304814 prodrug dosed […] intravenous, individual monkeys, BLQ=1ng/mL for urine) was “BLQ”. The Half life [4, 9] was 3.0 h, the clearance [4, 9] was 129 mL/min/kg and the “bacterial reverse mutation assay result” value [5] was “negative”. The pIC50 ([6]; IC50, N-methyl quinidine (0.2 µM)) was < 3.52, the “% PGP Uptake Activity” value ([6]; inhibitor concentration 0.0732 uM) was 123.862% and 96.8629% and 149.319% and the “% PGP Uptake Activity” value ([6]; inhibitor concentration 0.2930 uM) was 106.737% and 95.0116% and 107.663%. For the same compound, the “% PGP Uptake Activity” value ([6]; inhibitor concentration 1.1719 uM) was 108.588% and 115.068% and 109.514%, the “% PGP Uptake Activity” value ([6]; inhibitor concentration 4.6875 uM) was 120.159% and 118.308% and 119.234% and the “% PGP Uptake Activity” value ([6]; inhibitor concentration 18.7500 uM) was 122.011% and 113.68% and 118.308%. For the same compound, the “% PGP Uptake Activity” value ([6]; inhibitor concentration 300.0000 uM) was 73.875% and 64.7724% and 99.64%, the pIC50 [7] was 3.62 and < 3.89 and the pIC50 [8] was 3.87 and < 3.89.
